Source: patent US11041009B2, “Glucose responsive insulin comprising a tri-valent sugar cluster for treatment of diabetes” (Merck Sharp & Dohme Corp., priority 2017, dated 2021)

Assays:
[1] = biological target: T1, Human macrophage mannose receptor 1 (MRC1) (Homo sapiens, UniProt P22897); assay: MRC1 competition binding assay with Eu-labeled mannosylated-BSA (Methods E and F); details: Method F: MRC1 assay in a 384-well plate; read-out: MRC1 Binding IP‡
T1 sequence (P22897 19-1456): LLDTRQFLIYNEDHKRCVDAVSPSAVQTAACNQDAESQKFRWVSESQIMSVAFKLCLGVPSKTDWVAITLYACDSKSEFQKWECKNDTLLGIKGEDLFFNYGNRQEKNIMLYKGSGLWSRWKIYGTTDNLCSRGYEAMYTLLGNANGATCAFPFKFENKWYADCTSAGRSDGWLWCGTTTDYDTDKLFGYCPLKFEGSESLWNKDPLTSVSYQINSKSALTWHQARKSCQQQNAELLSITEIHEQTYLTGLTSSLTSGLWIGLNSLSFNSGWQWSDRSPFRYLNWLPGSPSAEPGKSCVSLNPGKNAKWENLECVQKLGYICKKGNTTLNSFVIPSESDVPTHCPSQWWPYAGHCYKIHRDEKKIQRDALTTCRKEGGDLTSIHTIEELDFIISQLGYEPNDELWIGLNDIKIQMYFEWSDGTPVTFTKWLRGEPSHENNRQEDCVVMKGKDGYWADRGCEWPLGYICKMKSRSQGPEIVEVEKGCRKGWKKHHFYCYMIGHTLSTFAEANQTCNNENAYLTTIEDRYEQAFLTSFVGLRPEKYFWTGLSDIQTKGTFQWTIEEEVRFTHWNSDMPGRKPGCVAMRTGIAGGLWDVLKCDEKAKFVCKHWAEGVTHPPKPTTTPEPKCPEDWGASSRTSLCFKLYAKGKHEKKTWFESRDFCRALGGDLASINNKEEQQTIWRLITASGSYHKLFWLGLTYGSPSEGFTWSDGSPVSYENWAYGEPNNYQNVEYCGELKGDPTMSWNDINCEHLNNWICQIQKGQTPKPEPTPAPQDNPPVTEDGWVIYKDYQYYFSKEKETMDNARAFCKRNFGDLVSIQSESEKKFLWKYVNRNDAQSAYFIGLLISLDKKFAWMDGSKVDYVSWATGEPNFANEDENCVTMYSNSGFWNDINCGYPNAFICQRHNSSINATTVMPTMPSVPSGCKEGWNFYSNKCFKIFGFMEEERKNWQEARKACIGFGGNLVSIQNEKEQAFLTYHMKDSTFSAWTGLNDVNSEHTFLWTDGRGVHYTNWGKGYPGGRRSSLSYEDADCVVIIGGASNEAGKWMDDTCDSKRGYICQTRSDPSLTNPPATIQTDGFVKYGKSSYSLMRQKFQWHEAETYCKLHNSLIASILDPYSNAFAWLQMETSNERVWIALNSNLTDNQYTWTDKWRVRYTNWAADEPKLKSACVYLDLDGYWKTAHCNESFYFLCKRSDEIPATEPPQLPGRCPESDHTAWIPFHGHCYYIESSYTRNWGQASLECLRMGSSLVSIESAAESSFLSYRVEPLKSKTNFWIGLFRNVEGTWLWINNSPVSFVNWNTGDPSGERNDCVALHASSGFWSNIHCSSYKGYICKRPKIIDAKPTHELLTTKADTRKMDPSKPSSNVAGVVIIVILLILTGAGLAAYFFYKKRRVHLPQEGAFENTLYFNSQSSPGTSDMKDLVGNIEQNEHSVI
Procedure: Human macrophage mannose receptor 1 (MRC1) Binding Assays were performed as follows.
The competition binding assay for MRC1 utilized a ligand, mannosylated-BSA labeled with the DELFIA Eu-N1-ITC reagent, as reported in the literature. Assay was performed either in a 96-well plate with 100 μL well volume (Method E) or in a 384-well plate with 25 μL well volume (Method F). […] The antibody was incubated in the plate for 1 hr at room temperature with shaking. The plate was washed with wash buffer 3-5 times followed by addition of MRC1 (2 ng/μl final concentration) in PBS containing 1% stabilizer BSA. The plate was incubated at room temperature with gentle shaking for 1 hr. The plate was washed three times with wash buffer. The IOC molecules in 12.5 μL (or 50 μL depending on plate format) buffer at appropriate concentrations were added followed by 12.5 μL (or 50 μL) Eu-mannosylated-BSA (0.1 nM final concentration) in 50 mM Tris, pH 7.5 containing 100 mM NaCl, 5 mM CaCl2, 1 mM MgCl2 and 0.2% stabilizer BSA. The plate was incubated for 2 hrs at room temperature with shaking followed by washing three times with wash buffer. Perkin Elmer Eu-inducer reagent was added and incubated for 30 min at room temperature prior to detection of the Eu signal (Excitation=340 nm: Emission=615 nm).

human IR(B) = biological target: T2, human IR(B) (Homo sapiens, UniProt P06213); assay: Insulin Receptor Phosphorylation Assay (MSD pIR assay; Methods A and B); type: cell-based; details: Method B: IR phosphorylation assay, 384-well with automated liquid dispense; CHO cells expressing human IR(B); read-out: IR Activation IP†
T2 construct: expressed in transfected cells
Procedure: Insulin Receptor Phosphorylation Assays were performed as follows.
Cells were harvested and frozen in aliquots for use in the MSD pIR assay. Briefly, the frozen cells were plated in either 96-well (40,000 cells/well, Method A) or 384-well (10,000 cells/well, Method B) clear tissue culture plates and allowed to recover. IOC molecules at the appropriate concentrations were added and the cells incubated for 8 min at 37° C. The media was aspirated and chilled MSD cell lysis buffer was added as per MSD kit instructions. The cells were lysed on ice for 40 min and the lysate then mixed for 10 minutes at room temperature. The lysate was transferred to the MSD kit pIR detection plates. The remainder of the assay was carried out following the MSD kit recommended protocol.

T2 sequence (P06213 28-758 limits assumed): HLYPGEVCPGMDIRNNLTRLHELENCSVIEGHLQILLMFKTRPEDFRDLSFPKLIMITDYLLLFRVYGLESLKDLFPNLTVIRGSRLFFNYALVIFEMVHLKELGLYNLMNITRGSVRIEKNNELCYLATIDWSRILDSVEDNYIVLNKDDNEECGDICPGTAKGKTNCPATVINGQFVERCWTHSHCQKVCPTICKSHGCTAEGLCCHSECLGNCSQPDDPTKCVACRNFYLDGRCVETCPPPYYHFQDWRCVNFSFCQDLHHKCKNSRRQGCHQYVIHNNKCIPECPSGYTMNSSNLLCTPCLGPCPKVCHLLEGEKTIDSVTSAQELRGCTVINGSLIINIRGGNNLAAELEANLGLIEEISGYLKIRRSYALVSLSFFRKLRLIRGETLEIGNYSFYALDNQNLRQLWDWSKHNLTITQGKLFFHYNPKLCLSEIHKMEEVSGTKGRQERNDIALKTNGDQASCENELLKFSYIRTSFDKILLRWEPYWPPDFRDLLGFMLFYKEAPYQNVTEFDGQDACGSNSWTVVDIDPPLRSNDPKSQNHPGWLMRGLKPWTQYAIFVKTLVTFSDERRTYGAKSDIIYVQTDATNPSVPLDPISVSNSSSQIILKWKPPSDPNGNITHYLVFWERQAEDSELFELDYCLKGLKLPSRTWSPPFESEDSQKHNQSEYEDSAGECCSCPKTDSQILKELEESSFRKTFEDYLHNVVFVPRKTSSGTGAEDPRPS
T2 sequence (P06213 763-1382 partner limits assumed): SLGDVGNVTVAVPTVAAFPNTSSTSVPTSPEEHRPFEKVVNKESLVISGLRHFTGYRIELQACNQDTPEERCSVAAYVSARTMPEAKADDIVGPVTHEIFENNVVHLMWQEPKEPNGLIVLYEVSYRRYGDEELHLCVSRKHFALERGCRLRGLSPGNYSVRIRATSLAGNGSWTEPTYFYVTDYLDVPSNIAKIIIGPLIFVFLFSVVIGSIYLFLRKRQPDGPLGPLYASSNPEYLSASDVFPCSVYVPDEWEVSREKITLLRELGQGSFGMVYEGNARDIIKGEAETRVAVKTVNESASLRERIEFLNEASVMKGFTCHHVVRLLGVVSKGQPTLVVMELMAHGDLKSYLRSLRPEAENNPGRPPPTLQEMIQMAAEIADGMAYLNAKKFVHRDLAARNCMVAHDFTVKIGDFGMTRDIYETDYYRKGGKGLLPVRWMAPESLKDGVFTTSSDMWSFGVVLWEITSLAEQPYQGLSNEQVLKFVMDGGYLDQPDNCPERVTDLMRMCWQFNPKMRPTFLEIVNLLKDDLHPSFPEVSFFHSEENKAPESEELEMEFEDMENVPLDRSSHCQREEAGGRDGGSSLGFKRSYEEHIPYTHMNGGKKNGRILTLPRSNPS

Row | Compound | IC50 [1] | EC50 (human IR(B))
1 | CC[C@H](C)[C@H](NC(=O)CNC(=O)CCCCC(=O)N(CC(=O)NCCO[C@H]1O[C@H](CO)[C@@H](O)[C@H](O)[C@@H]1O)CC(=O)N(CCO[C@H]1O[C@H](CO)[C@@H](O)[C@H](O)[C@@H]1O)CCO[C@H]1O[C@H](CO)[C@@H](O)[C@H](O)[C@@H]1O)C(=O)N[C@H](C(=O)N[C@@H](CCC(=O)O)C(=O)N[C@@H](CCC(N)=O)C(=O)N[C@H]1CSSC[C@@H]2NC(=O)[C@H]([C@@H](C)CC)NC(=O)[C@H](CO)NC(=O)[C@H]([C@@H](C)O)NC(=O)[C@H](CSSC[C@H](NC(=O)[C@H](CC(C)C)NC(=O)[C@H](Cc3c[nH]cn3)NC(=O)[C@H](CCC(N)=O)NC(=O)[C@H](CC(N)=O)NC(=O)[C@@H](NC(=O)[C@@H](N)Cc3ccccc3)C(C)C)C(=O)NCC(=O)N[C@@H](CO)C(=O)N[C@@H](Cc3c[nH]cn3)C(=O)N[C@@H](CC(C)C)C(=O)N[C@@H](C(C)C)C(=O)N[C@@H](CCC(=O)O)C(=O)N[C@@H](C)C(=O)N[C@@H](CC(C)C)C(=O)N[C@@H](Cc3ccc(O)cc3)C(=O)N[C@@H](CC(C)C)C(=O)N[C@@H](C(C)C)C(=O)N[C@H](C(=O)NCC(=O)N[C@@H](CCC(=O)O)C(=O)N[C@@H](CCCNC(=N)N)C(=O)NCC(=O)N[C@@H](Cc3ccccc3)C(=O)N[C@@H](Cc3ccccc3)C(=O)N[C@@H](Cc3ccc(O)cc3)C(=O)N[C@H](C(=O)N3CCC[C@H]3C(=O)N[C@@H](CCCCNC(=O)CCCCC(=O)N(CC(=O)NCCO[C@H]3O[C@H](CO)[C@@H](O)[C@H](O)[C@@H]3O)CC(=O)N(CCO[C@H]3O[C@H](CO)[C@@H](O)[C@H](O)[C@@H]3O)CCO[C@H]3O[C@H](CO)[C@@H](O)[C@H](O)[C@@H]3O)C(=O)N[C@H](C(=O)O)[C@@H](C)O)[C@@H](C)O)CSSC[C@@H](C(=O)N[C@@H](CC(N)=O)C(=O)O)NC(=O)[C@H](Cc3ccc(O)cc3)NC(=O)[C@H](CC(N)=O)NC(=O)[C@H](CCC(=O)O)NC(=O)[C@H](CC(C)C)NC(=O)[C@H](CCC(N)=O)NC(=O)[C@H](Cc3ccc(O)cc3)NC(=O)[C@H](CC(C)C)NC(=O)[C@H](CO)NC2=O)NC1=O)C(C)C [IOC-60] | 33.1 nM | 1.85 nM
2 | CC[C@H](C)[C@H](NC(=O)CN)C(=O)N[C@H](C(=O)N[C@@H](CCC(=O)O)C(=O)N[C@@H](CCC(N)=O)C(=O)N[C@H]1CSSC[C@@H]2NC(=O)[C@H]([C@@H](C)CC)NC(=O)[C@H](CO)NC(=O)[C@H]([C@@H](C)O)NC(=O)[C@H](CSSC[C@H](NC(=O)[C@H](CC(C)C)NC(=O)[C@H](Cc3c[nH]cn3)NC(=O)[C@H](CCC(N)=O)NC(=O)[C@H](CC(N)=O)NC(=O)[C@@H](NC(=O)[C@H](Cc3ccccc3)NC(=O)CCCCC(=O)N(CC(=O)NCCO[C@H]3O[C@H](CO)[C@@H](O)[C@H](O)[C@@H]3O)CC(=O)N(CCO[C@H]3O[C@H](CO)[C@@H](O)[C@H](O)[C@@H]3O)CCO[C@H]3O[C@H](CO)[C@@H](O)[C@H](O)[C@@H]3O)C(C)C)C(=O)NCC(=O)N[C@@H](CO)C(=O)N[C@@H](Cc3c[nH]cn3)C(=O)N[C@@H](CC(C)C)C(=O)N[C@@H](C(C)C)C(=O)N[C@@H](CCC(=O)O)C(=O)N[C@@H](C)C(=O)N[C@@H](CC(C)C)C(=O)N[C@@H](Cc3ccc(O)cc3)C(=O)N[C@@H](CC(C)C)C(=O)N[C@@H](C(C)C)C(=O)N[C@H](C(=O)NCC(=O)N[C@@H](CCC(=O)O)C(=O)N[C@@H](CCCNC(=N)N)C(=O)NCC(=O)N[C@@H](Cc3ccccc3)C(=O)N[C@@H](Cc3ccccc3)C(=O)N[C@@H](Cc3ccc(O)cc3)C(=O)N[C@H](C(=O)N3CCC[C@H]3C(=O)N[C@@H](CCCCNC(=O)CCCCC(=O)N(CC(=O)NCCO[C@H]3O[C@H](CO)[C@@H](O)[C@H](O)[C@@H]3O)CC(=O)N(CCO[C@H]3O[C@H](CO)[C@@H](O)[C@H](O)[C@@H]3O)CCO[C@H]3O[C@H](CO)[C@@H](O)[C@H](O)[C@@H]3O)C(=O)N[C@H](C(=O)O)[C@@H](C)O)[C@@H](C)O)CSSC[C@@H](C(=O)N[C@@H](CC(N)=O)C(=O)O)NC(=O)[C@H](Cc3ccc(O)cc3)NC(=O)[C@H](CC(N)=O)NC(=O)[C@H](CCC(=O)O)NC(=O)[C@H](CC(C)C)NC(=O)[C@H](CCC(N)=O)NC(=O)[C@H](Cc3ccc(O)cc3)NC(=O)[C@H](CC(C)C)NC(=O)[C@H](CO)NC2=O)NC1=O)C(C)C [IOC-61] | 17.9 nM | 1.13 nM
3 | CC[C@H](C)[C@H](NC(=O)CN)C(=O)N[C@H](C(=O)N[C@@H](CCC(=O)O)C(=O)N[C@@H](CCC(N)=O)C(=O)N[C@H]1CSSC[C@@H]2NC(=O)[C@H]([C@@H](C)CC)NC(=O)[C@H](CO)NC(=O)[C@H]([C@@H](C)O)NC(=O)[C@H](CSSC[C@H](NC(=O)[C@H](CC(C)C)NC(=O)[C@H](Cc3c[nH]cn3)NC(=O)[C@H](CCC(N)=O)NC(=O)[C@H](CC(N)=O)NC(=O)[C@@H](NC(=O)[C@H](Cc3ccccc3)NC(=O)CCCCC(=O)N(CC(=O)NCCO[C@@H]3O[C@@H](C)[C@@H](O)[C@@H](O)[C@@H]3O)CC(=O)N(CCO[C@H]3O[C@H](CO)[C@@H](O)[C@H](O)[C@@H]3O)CCO[C@H]3O[C@H](CO)[C@@H](O)[C@H](O)[C@@H]3O)C(C)C)C(=O)NCC(=O)N[C@@H](CO)C(=O)N[C@@H](Cc3c[nH]cn3)C(=O)N[C@@H](CC(C)C)C(=O)N[C@@H](C(C)C)C(=O)N[C@@H](CCC(=O)O)C(=O)N[C@@H](C)C(=O)N[C@@H](CC(C)C)C(=O)N[C@@H](Cc3ccc(O)cc3)C(=O)N[C@@H](CC(C)C)C(=O)N[C@@H](C(C)C)C(=O)N[C@H](C(=O)NCC(=O)N[C@@H](CCC(=O)O)C(=O)N[C@@H](CCCNC(=N)N)C(=O)NCC(=O)N[C@@H](Cc3ccccc3)C(=O)N[C@@H](Cc3ccccc3)C(=O)N[C@@H](Cc3ccc(O)cc3)C(=O)N[C@H](C(=O)N3CCC[C@H]3C(=O)N[C@@H](CCCCNC(=O)CCCCC(=O)N(CC(=O)NCCO[C@@H]3O[C@@H](C)[C@@H](O)[C@@H](O)[C@@H]3O)CC(=O)N(CCO[C@H]3O[C@H](CO)[C@@H](O)[C@H](O)[C@@H]3O)CCO[C@H]3O[C@H](CO)[C@@H](O)[C@H](O)[C@@H]3O)C(=O)N[C@H](C(=O)O)[C@@H](C)O)[C@@H](C)O)CSSC[C@@H](C(=O)N[C@@H](CC(N)=O)C(=O)O)NC(=O)[C@H](Cc3ccc(O)cc3)NC(=O)[C@H](CC(N)=O)NC(=O)[C@H](CCC(=O)O)NC(=O)[C@H](CC(C)C)NC(=O)[C@H](CCC(N)=O)NC(=O)[C@H](Cc3ccc(O)cc3)NC(=O)[C@H](CC(C)C)NC(=O)[C@H](CO)NC2=O)NC1=O)C(C)C [IOC-62] | 5.12 nM | 0.77 nM
